Patent US20230295157A1, “3-(1H-IMIDAZOL-2-YL)-2,3,8,8A-TETRAHYDROINDOLIZIN-5(1H)-ONE DERIVATIVES USEFUL AS FACTOR XIA INHIBITORS” (JANSSEN PHARMACEUTICA NV, priority 2020, published 2023)
Like-named read-outs stand apart in the source and are kept apart here.

Assays:
Factor XIa = Factor XIa (Homo sapiens (Human), UniProt P03951); test: Factor XIa inhibition assay (FLINT) utilizing a fluorophore-quencher pair peptide substrate; assay type: biochemical; settings: 30 min preincubation, kinetic reads over 30 min, read-out: FXIa Kin Inh IC50
Chain of Factor XIa (P03951 388-625): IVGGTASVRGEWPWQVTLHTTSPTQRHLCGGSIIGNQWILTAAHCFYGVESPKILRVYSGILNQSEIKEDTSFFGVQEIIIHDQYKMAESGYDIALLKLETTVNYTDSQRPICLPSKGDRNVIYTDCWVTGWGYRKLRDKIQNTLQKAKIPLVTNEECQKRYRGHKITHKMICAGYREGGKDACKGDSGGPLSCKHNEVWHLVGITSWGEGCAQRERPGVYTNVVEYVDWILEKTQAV
Chain of Factor XIa (P03951 19-387 partner): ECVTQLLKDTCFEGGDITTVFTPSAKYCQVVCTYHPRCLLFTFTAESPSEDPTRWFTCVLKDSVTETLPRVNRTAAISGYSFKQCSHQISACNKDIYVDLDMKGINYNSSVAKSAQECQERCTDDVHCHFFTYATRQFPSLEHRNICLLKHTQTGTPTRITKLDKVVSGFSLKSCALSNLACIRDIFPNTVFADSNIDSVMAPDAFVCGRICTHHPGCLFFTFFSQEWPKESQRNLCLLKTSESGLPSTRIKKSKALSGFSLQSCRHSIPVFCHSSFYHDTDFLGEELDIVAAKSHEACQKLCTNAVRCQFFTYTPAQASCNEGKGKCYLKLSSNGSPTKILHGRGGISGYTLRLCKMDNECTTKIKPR
Outline: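 FXIa ([…]) preincubated 30 min with compound (11-point 3-fold dilution, top 100 nM, 2% DMSO), then 15 μM quenched FXI Arg146-based peptide added; Tris pH 7.5, CaCl2, BSA, CHAPS. Fluorescence 485/520 nm read kinetically every 5 min over 30 min at RT; IC50 by 4-parameter fit.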

human plasma kallikrein = human plasma kallikrein (Homo sapiens (Human), UniProt P03952); test: Kallikrein inhibition assay (FLINT) utilizing a quenched AMC peptide substrate; assay type: biochemical; settings: 30 min preincubation, read-out: Kallikrein Kin Inh IC50
Chain of human plasma kallikrein (P03952 391-638): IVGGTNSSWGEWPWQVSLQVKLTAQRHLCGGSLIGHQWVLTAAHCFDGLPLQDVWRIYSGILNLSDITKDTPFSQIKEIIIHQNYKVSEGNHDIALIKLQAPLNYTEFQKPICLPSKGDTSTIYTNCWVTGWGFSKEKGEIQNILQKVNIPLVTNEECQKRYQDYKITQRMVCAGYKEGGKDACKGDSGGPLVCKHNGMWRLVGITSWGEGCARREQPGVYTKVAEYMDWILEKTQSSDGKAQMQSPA
Chain of human plasma kallikrein (P03952 20-390 partner): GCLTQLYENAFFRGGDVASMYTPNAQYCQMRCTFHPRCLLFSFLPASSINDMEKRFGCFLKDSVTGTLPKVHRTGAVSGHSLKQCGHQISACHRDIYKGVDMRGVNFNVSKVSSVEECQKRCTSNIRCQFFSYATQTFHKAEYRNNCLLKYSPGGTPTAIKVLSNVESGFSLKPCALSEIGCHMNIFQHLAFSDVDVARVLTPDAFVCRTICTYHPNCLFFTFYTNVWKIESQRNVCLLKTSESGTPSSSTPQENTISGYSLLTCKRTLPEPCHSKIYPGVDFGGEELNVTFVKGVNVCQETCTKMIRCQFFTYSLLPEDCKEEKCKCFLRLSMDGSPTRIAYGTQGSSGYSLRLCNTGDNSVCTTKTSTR
Outline: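 Fluorogenic Z-Gly-Pro-Arg-AMC cleavage (50 μM substrate, 2 nM kallikrein, Tris pH 7.5, CaCl2, BSA, CHAPS, 2% DMSO) read kinetically at 340/440 nm for 30 min after 30-min compound pre-incubation. Compounds in 11-point 3-fold series from 1 μM; percent inhibition fitted to four-parameter equation for IC50.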

[1] = 5Fam-KLTRAETV-K5Tamra substrate 15 μM
[2] = kinetic reads over 30 min, Z-Gly-Pro-Arg-AMC substrate 50 μM
[3] = 5Fam-[…]-K5Tamra substrate 15 μM

| Compound | IC50 (Factor XIa; [1]) [nM] | IC50 (human plasma kallikrein; [2]) [µM] | IC50 (Factor XIa; [3]) [nM] | IC50 (human plasma kallikrein; μM, kinetic reads) [µM] |
| --- | --- | --- | --- | --- |
| COc1ccc(-c2c[nH]c([C@@H]3CC[C@H]4CC(c5c(-n6cnnn6)ccc(Cl)c5F)=CC(=O)N43)n2)c(NC(=O)C2CC2)c1 [Example 264, N-[2-[2-[(3S,8aS)-7-[3-Chloro-2-fluoro-6-(tetrazol-1-yl)phenyl]-5-oxo-2,3,8,8a-tetrahydro-1H-indolizin-3-yl]-1H-imidazol-4-yl]-5-methoxy-phenyl]cyclopropanecarboxamide] | 1.1 | 0.0021 |  |  |
| O=C1C=C(c2c(-n3cnnn3)ccc(Cl)c2F)C[C@H]2CC[C@H](c3ncc(-c4c[nH]c5ccccc45)[nH]3)N12 (relative stereo) [Example 137, (3R*,8aR)-3-(5-(1H-indol-3-yl)-1H-imidazol-2-yl)-7-(3-chloro-2-fluoro-6-(1H-tetrazol-1-yl)phenyl)-2,3,8,8a-tetrahydroindolizin-5(1H)-one] |  | 0.0077 | 4.6 |  |
| CNc1n[nH]c2cc(-c3cnc([C@@H]4CC[C@H]5CC(c6c(-n7cnnn7)ccc(Cl)c6F)=CC(=O)N54)[nH]3)ccc12 [Example 265, (3S,8aS)-7-[3-Chloro-2-fluoro-6-(tetrazol-1-yl)phenyl]-3-[5-[3-(methylamino)-1H-indazol-6-yl]-1H-imidazol-2-yl]-2,3,8,8a-tetrahydro-1H-indolizin-5-one] | 0.4 | 0.001 |  |  |
| COCCNC(=O)c1nccc(-c2cnc([C@@H]3CC[C@@H]4CC(c5c(-n6cnnn6)ccc(Cl)c5F)=CC(=O)N43)[nH]2)c1F [Example 180, 4-(2-((3S,8aR)-7-(3-chloro-2-fluoro-6-(1H-tetrazol-1-yl)phenyl)-5-oxo-1,2,3,5,8,8a-hexahydroindolizin-3-yl)-1H-imidazol-5-yl)-3-fluoro-N-(2-methoxyethyl)picolinamide] | 8.6 | 0.0332 |  |  |
| O=C1C=C(c2c(-n3cnnn3)ccc(Cl)c2F)C[C@H]2CC[C@@H](c3nc(F)c(-c4ccnc(-n5nccn5)c4)[nH]3)N12 [Example 87, (3S,8aR)-7-[3-chloro-2-fluoro-6-(tetrazol-1-yl)phenyl]-3-[4-fluoro-5-[2-(triazol-2-yl)-4-pyridyl]-1H-imidazol-2-yl]-2,3,8,8a-tetrahydro-1H-indolizin-5-one] | 0.9 | 0.0016 |  |  |
| O=C1C=C(c2c(-n3cnnn3)ccc(Cl)c2F)C[C@H]2CC[C@@H](c3nc(Cl)c(-c4ccnc([C@@H](O)C(F)(F)F)c4)[nH]3)N12 [Example 173, (3S,8aR)-7-(3-chloro-2-fluoro-6-(1H-tetrazol-1-yl)phenyl)-3-(4-chloro-5-(2-((R)-2,2,2-trifluoro-1-hydroxyethyl)pyridin-4-yl)-1H-imidazol-2-yl)-2,3,8,8a-tetrahydroindolizin-5(1H)-one] | 1.7 | 0.007 |  |  |
| C[C@H]1C[C@@H](c2ncc(-c3ccc(N)nc3F)[nH]2)N2C(=O)C=C(c3c(-n4cnnn4)ccc(Cl)c3F)C[C@H]12 (relative stereo) [Example 344, (1*S,3S,8a*R)-3-(5-(6-Amino-2-fluoropyridin-3-yl)-1H-imidazol-2-yl)-7-(3-chloro-2-fluoro-6-(1H-tetrazol-1-yl)phenyl)-1-methyl-2,3,8,8a-tetrahydroindolizin-5(1H)-one] |  |  | 202 | 1.3 |
| CC(F)(F)C(=O)Nc1cnccc1-c1c[nH]c([C@@H]2CCC3CC(c4c(-n5cnnn5)ccc(Cl)c4F)=CC(=O)N32)n1 (stereo partly drawn) [Example 246, N-[4-[2-[(3S)-7-[3-Chloro-2-fluoro-6-(tetrazol-1-yl)phenyl]-5-oxo-2,3,8,8a-tetrahydro-1H-indolizin-3-yl]-1H-imidazol-4-yl]-3-pyridyl]-2,2-difluoro-propanamide] | 1.8 | 0.141 |  |  |
| Nc1ccc(-c2cnc([C@@H]3CCC4CC(c5c(-c6ccn[nH]6)ccc(Cl)c5F)=CC(=O)N43)[nH]2)c(F)n1 (stereo partly drawn) [Example 363, (3S)-3-(5-(6-Amino-2-fluoropyridin-3-yl)-1H-imidazol-2-yl)-7-(3-chloro-2-fluoro-6-(1H-pyrazol-5-yl)phenyl)-2,3,8,8a-tetrahydroindolizin-5(1H)-one] | > 100 |  |  | > 1 |
| [2H]C([2H])([2H])C(=O)Nc1cnc(C(F)(F)F)cc1-c1cnc([C@@H]2CC[C@@H]3CC(c4c(-n5cnnn5)ccc(Cl)c4F)=CC(=O)N32)[nH]1 [Example 243, N-[4-[2-[(3S,8aR)-7-[3-Chloro-2-fluoro-6-(tetrazol-1-yl)phenyl]-5-oxo-2,3,8,8a-tetrahydro-1H-indolizin-3-yl]-1H-imidazol-5-yl]-6-(trifluoromethyl)-3-pyridyl]-2,2,2-trideuterio-acetamide] |  | 0.653 | 52 |  |
| O=C1C=C(c2c(OC(F)F)ccc(Cl)c2F)C[C@H]2CC[C@@H](c3nc(F)c(-c4ccnc(CO)c4F)[nH]3)N12 [Example 23, (3S,8aR)-7-(3-Chloro-6-(difluoromethoxy)-2-fluorophenyl)-3-(4-fluoro-5-(3-fluoro-2-(hydroxymethyl)pyridin-4yl)-1H-imidazol-2-yl)-2,3,8,8a-tetrahydroindolizin-5(1H)-one] | 50.1 | 0.265 |  |  |
| COC(=O)Nc1ccc(-c2cnc([C@@H]3CC[C@H]4CC(c5c(-n6cnnn6)ccc(Cl)c5F)=CC(=O)N43)[nH]2)cc1 [Example 340, Methyl (4-(2-((3S,8aS)-7-(3-chloro-2-fluoro-6-(1H-tetrazol-1-yl)phenyl)-5-oxo-1,2,3,5,8,8a-hexahydroindolizin-3-yl)-1H-imidazol-5-yl)phenyl)carbamate] | 0.3 | 0.0019 |  |  |
| O=C1C=C(c2c(-n3cnnn3)ccc(Cl)c2F)C[C@H]2CC[C@@H](c3ncc(-c4ccnc5[nH]ccc45)[nH]3)N12 (single isomer, unassigned) [Example 362, (3S,8aR*)-3-(5-(1H-pyrrolo[2,3-b]pyridin-4-yl)-1H-imidazol-2-yl)-7-(3-chloro-2-fluoro-6-(1H-tetrazol-1-yl)phenyl)-2,3,8,8a-tetrahydroindolizin-5(1H)-one] | 0.1 | 0.0025 |  |  |
| NC(=O)c1ccc(-c2c[nH]c([C@@H]3CC[C@H]4CC(c5c(-n6cc(C(F)(F)F)nn6)ccc(Cl)c5F)=CC(=O)N43)n2)s1 (single isomer, unassigned) [Example 221] | 2.3 | 0.0077 |  |  |
| O=C1C=C(c2c(-n3cnnn3)ccc(Cl)c2F)C[C@H]2CC[C@@H](c3ncc(-c4ccnc(C(F)(F)F)c4)[nH]3)N12 [Example 351, (3S,8aR)-7-(3-Chloro-2-fluoro-6-(1H-tetrazol-1-yl)phenyl)-3-(5-(2-(trifluoromethyl)pyridin-4-yl)-1H-imidazol-2-yl)-2,3,8,8a-tetrahydroindolizin-5(1H)-one] | 2.7 | 0.0078 |  |  |
| O=C(Nc1ccncc1-c1c[nH]c([C@@H]2CC[C@H]3CC(c4c(-n5cnnn5)ccc(Cl)c4F)=CC(=O)N32)n1)C1CC1 [Example 267, N-[3-[2-[(3S,8aS)-7-[3-Chloro-2-fluoro-6-(tetrazol-1-yl)phenyl]-5-oxo-2,3,8,8a-tetrahydro-1H-indolizin-3-yl]-1H-imidazol-4-yl]-4-pyridyl]cyclopropanecarboxamide] | 1 | 0.009 |  |  |
| COC(=O)Nc1ccc(-c2cnc([C@@H]3CC[C@H]4CC(c5c(-n6cnnn6)ccc(Cl)c5F)=CC(=O)N43)[nH]2)nc1 (relative stereo) [Example 322, Methyl (6-(2-((3S,8aS)-7-(3-Chloro-2-fluoro-6-(1H-tetrazol-1-yl)phenyl)-5-oxo-1,2,3,5,8,8a-hexahydroindolizin-3-yl)-1H-imidazol-5-yl)pyridin-3-yl)carbamate] |  | 0.0103 | 0.8 |  |
